In US20050085463A1 (priority 2003, published 2005):

Legend:
M2 muscarinic receptor = molecular target: T1, M2 muscarinic receptor (Homo sapiens, UniProt P08172); test: R-SAT competitive antagonist assay; assay type: cell-based; parameters: expressed in transfected cells; host or cells: NIH/3T3; settings: nr = no significant antagonist or inverse agonist activity up to 1 μM, nr* = nr but significant agonist activity
T1 sequence (P08172 1-466): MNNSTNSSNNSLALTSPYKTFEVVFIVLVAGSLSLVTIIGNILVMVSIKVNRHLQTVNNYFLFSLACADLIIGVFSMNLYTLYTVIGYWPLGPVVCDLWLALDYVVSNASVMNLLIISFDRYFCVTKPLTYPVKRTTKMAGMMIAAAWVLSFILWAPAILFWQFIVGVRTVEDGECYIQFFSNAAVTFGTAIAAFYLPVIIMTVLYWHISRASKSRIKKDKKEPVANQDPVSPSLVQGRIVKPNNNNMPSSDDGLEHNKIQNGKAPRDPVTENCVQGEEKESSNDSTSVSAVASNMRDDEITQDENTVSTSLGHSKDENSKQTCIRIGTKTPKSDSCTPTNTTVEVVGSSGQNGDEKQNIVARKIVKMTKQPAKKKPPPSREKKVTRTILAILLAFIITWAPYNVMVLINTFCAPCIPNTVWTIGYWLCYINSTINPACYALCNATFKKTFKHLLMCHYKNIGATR

cFOS expression in brain = settings: s.c. 7.5 and 30.0 mg/kg; two hours; western blotting (Young et al.); cited from earlier work
5-HT1A receptor = molecular target: T2, 5-HT1A receptor (Homo sapiens, UniProt P08908); test: Ligand binding screen at 10 μM
T2 sequence (P08908 1-422): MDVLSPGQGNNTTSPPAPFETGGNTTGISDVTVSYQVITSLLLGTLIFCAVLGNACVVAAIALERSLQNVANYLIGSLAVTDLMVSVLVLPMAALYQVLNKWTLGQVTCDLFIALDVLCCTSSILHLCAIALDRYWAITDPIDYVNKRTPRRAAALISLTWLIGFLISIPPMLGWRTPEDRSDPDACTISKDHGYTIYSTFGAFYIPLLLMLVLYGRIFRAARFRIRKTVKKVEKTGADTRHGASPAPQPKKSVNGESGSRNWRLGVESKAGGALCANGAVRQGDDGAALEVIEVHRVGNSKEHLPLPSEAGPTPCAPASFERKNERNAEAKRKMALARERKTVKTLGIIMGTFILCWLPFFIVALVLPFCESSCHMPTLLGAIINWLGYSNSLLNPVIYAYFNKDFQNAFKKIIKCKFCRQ

[1] = Brain-to-plasma ratio in rats; assay type: in vivo; settings: male, Sprague-Dawley, rat, po, 10 mg/kg, brain-to-plasma ratio of NDMC
Experimental: The pharmacokinetics of clozapine and N-desmethylclozapine (NDMC) was evaluated in rats after intravenous (i.v.) and oral (p.o.) dosing. Cmax, Tmax and bioavailability after p.o. dosing and the volume of distribution (Vss), terminal plasma half-life (T1/2) and clearance (CLs) after i.v. dosing were determined. […] Animals were euthanised and brain and plasma samples obtained at 60 or 240 minutes post-dose, depending on study group. The levels of NDMC and clozapine were measured in each sample.
The pharmacokinetic study described above included an initial assessment of the distribution of NDMC into brain.

M1 muscarinic receptor = molecular target: T3, M1 muscarinic receptor (Homo sapiens, UniProt P11229)
T3 sequence (P11229 1-460): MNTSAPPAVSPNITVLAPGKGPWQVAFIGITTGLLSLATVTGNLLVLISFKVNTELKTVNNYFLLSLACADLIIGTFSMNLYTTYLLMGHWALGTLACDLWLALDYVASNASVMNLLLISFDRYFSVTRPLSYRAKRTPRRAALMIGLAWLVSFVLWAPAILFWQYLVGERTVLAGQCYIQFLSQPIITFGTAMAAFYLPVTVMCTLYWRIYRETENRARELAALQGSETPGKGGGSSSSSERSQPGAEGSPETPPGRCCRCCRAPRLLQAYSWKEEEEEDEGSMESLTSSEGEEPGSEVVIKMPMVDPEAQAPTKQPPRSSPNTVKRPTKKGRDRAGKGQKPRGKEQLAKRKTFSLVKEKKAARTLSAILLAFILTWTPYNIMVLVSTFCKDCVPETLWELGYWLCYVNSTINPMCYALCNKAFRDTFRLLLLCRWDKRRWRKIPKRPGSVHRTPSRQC

D2 dopamine receptor = D2 dopamine receptor (Homo sapiens, UniProt P14416); test: R-SAT competitive antagonist assay
5HT1B receptors = 5HT1B receptors (Homo sapiens, UniProt P28222); test: Ligand binding screen at 10 μM
5-HT6A receptor = 5-HT6A receptor (Homo sapiens, UniProt P50406); test: R-SAT inverse agonist assay
5-HT7A receptor = 5-HT7A receptor (Homo sapiens, UniProt P34969); test: R-SAT inverse agonist assay
[2] = steady state kinetics in humans (ref. 13); cited from earlier work
α1 receptors = test: Ligand binding screen at 10 μM
[3] = Serum levels during clozapine treatment of schizophrenic patients; assay type: in vivo, human
Experimental: The analysis was adjusted for baseline level of symptom severity, age, and dose, since dose was not fixed. […] Regarding co-treatment with anticholinergic agents, only two subjects in this sample were treated with benztropine. […] Lastly, ten of the patients in this study were treated with benzodiazepines at the time the levels of clozapine and NDMC were measured.
Patients were classified as treatment resistant or not by standard criteria (Kane et al 1988), and clinical ratings and neuropsychological test scores were obtained by trained raters who were blinded to plasma drug levels.

[4] = molecular target: α2A (Alpha 2A) adrenergic receptor (Homo sapiens, UniProt P08913); test: R-SAT competitive antagonist assay; settings: nr = no significant antagonist or inverse agonist activity up to 1 μM, nr* = nr but significant agonist activity
5HT3 receptors = 5HT3 receptors (Homo sapiens, UniProt P46098); test: Ligand binding screen at 10 μM
[5] = R-SAT, nr = no significant antagonist or inverse agonist activity up to 1 μM
[6] = clozapine-treated schizophrenics
[7] = clozapine-treated treatment resistant schizophrenics

5-HT6A receptor, sequence (P50406 whole entry): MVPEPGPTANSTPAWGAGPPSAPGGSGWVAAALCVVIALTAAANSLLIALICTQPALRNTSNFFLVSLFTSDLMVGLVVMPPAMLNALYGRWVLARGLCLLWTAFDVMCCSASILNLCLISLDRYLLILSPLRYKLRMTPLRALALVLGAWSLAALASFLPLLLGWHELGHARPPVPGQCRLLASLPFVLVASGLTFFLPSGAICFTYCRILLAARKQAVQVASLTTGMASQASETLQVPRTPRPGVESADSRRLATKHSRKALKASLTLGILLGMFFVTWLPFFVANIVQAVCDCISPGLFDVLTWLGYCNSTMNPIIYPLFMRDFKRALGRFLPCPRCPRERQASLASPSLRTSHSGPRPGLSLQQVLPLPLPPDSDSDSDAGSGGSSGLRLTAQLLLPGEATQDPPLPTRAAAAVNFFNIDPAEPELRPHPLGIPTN
5-HT7A receptor, sequence (P34969 1-445 isoform P34969-2): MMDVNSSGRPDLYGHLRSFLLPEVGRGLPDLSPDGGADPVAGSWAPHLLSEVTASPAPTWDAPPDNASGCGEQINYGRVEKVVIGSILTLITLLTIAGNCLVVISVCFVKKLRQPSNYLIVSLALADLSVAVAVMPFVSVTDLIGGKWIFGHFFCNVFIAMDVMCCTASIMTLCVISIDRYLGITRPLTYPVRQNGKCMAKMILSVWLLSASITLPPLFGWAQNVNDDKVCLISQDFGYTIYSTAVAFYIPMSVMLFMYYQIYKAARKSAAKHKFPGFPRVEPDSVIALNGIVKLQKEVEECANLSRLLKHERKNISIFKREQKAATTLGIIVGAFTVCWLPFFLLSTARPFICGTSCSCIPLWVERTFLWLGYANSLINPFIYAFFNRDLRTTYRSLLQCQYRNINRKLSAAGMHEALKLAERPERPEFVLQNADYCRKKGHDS
α2A (Alpha 2A) adrenergic receptor, sequence (P08913 whole entry): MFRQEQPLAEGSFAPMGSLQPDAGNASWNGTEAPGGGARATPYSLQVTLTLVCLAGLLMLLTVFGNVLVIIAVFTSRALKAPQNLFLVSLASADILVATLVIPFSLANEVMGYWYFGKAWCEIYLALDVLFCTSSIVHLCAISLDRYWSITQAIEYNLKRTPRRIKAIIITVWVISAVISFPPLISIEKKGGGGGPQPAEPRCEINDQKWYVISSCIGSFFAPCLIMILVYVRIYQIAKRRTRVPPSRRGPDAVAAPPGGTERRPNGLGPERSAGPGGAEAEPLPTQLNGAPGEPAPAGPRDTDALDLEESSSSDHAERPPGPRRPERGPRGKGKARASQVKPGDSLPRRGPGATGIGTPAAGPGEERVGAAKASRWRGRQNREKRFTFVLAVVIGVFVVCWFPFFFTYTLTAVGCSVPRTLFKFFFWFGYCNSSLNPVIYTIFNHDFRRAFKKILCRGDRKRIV
D2 dopamine receptor, sequence (P14416 whole entry): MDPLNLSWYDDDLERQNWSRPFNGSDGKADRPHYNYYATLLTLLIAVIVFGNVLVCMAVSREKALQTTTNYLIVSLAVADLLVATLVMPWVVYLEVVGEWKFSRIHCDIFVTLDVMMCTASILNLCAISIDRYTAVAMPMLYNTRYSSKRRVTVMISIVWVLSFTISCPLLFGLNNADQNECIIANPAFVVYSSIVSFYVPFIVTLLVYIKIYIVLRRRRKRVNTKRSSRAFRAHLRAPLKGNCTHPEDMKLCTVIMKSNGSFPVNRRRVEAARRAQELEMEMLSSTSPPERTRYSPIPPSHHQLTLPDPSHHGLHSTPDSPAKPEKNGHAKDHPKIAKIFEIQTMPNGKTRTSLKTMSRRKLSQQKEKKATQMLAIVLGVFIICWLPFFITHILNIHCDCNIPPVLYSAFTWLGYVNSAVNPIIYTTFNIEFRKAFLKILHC
5HT1B receptors, sequence (P28222 whole entry): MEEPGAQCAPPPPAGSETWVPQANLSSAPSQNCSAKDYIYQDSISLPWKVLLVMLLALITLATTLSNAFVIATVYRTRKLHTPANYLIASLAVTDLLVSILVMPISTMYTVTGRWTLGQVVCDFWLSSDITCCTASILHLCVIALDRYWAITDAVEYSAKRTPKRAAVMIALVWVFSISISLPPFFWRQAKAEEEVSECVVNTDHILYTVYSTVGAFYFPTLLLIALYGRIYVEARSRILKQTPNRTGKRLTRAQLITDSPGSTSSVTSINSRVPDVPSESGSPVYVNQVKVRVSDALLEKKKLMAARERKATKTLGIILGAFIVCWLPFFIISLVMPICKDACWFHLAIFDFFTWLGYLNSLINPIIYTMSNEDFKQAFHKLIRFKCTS
5HT3 receptors, sequence (P46098 24-478): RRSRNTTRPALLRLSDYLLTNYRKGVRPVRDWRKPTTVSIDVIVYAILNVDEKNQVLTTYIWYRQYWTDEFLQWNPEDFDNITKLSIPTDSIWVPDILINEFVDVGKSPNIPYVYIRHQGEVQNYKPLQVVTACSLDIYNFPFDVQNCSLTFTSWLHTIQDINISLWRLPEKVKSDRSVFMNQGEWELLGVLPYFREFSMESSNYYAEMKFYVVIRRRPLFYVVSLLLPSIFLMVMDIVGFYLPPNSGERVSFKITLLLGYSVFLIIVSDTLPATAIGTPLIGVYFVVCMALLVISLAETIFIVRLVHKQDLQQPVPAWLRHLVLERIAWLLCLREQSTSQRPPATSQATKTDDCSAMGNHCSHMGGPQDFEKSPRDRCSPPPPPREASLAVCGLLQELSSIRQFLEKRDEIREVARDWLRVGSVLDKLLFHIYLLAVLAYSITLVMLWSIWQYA

Question: For Clc1ccc2c(c1)N=C(N1CCNCC1)c1ccccc1N2 [NDMC, 8-chloro-11-(1-piperazinyl)-5H-dibenzo [b,e][1,4] diazepine], which “pKi M2, competitive antagonist” value (M2 muscarinic receptor) is on record?
Answer: The value was “nr*”.

Question: What about the “cFOS expression in brain regions” value (cFOS expression in brain) of the same compound?
Answer: The value was “induction of cFOS expression in the pre-frontal cortex and nucleus accumbens, but not in striatum”.

Question: What about the inhibition at 10 µM (5-HT1A receptor) of the same compound?
Answer: The inhibition at 10 µM was at least 90%.

Question: And the Kp at 1 h ([1]; 60 minutes after oral 10 mg/kg NDMC)?
Answer: Its Kp at 1 h is 0.36 ± 0.16.

Question: What about the Kp at 1 h ([1]; 60 minutes after oral clozapine) of the same compound?
Answer: The Kp at 1 h was 0.26 ± 0.07.

Question: And the Kp at 4 h ([1]; 240 minutes after oral 10 mg/kg NDMC)?
Answer: The Kp at 4 h was 1 ± 0.4.

Question: What about the Kp at 4 h ([1]; 240 minutes after oral clozapine) of the same compound?
Answer: The Kp at 4 h was 2.6 ± 0.8.

Question: What about the “pKi, competitive antagonist” value (M1 muscarinic receptor; PI hydrolysis in the presence of 3-micromolar carbachol) of the same compound?
Answer: The value was “no response”.

Question: And the “M1 % Efficacy” value (M1 muscarinic receptor; PI hydrolysis, relative to carbachol, listed as N-desmethylclozapine)?
Answer: Its value is 65 ± 10%.

Question: What about the Ki (D2 dopamine receptor) of the same compound?
Answer: The Ki was 0.0631 µM.

Question: What about the “pKi D2, competitive antagonist” value (D2 dopamine receptor; R-SAT, nr = no significant antagonist or inverse agonist activity up to 1 μM, nr* = nr but significant agonist activity) of the same compound?
Answer: The value was 7.2 ± 0.1.

Question: And the inhibition at 10 µM (5HT1B receptors)?
Answer: The inhibition at 10 µM was at least 90%.

Question: What about the EC50 (5-HT6A receptor) of the same compound?
Answer: The EC50 was 0.126 µM.

Question: And the “pEC50 5HT6A, inverse agonist” value (5-HT6A receptor; [5])?
Answer: The value was 6.9 ± 0.1.

Question: And the EC50 (5-HT7A receptor)?
Answer: The EC50 was 0.0501 µM.

Question: What about the “pEC50 5HT7A, inverse agonist” value (5-HT7A receptor; [5]) of the same compound?
Answer: Its value is 7.3 ± 0.1.

Question: And the “share of total serum clozapine concentrations” value [2]?
Answer: Its value is 40-75%.

Question: What about the “inhibition of binding, α1” value (α1 receptors) of the same compound?
Answer: Its value is at least 90%.

Question: What about the “Serum level, All Subjects at 6 Months (92)” value [3, 6] of the same compound?
Answer: Its value is 235 ± 190 ng/mL.

Question: What about the “Serum level, All Subjects at 6 Weeks (86)” value [3, 6] of the same compound?
Answer: The value was 194 ± 136 ng/mL.

Question: What about the “Serum level, Non-Responders (25)” value [3, 7] of the same compound?
Answer: Its value is 171 ± 123 ng/mL.

Question: What about the “Serum level, Responders (26)” value [3, 7] of the same compound?
Answer: Its value is 308 ± 243 ng/mL.

Question: What about the “Serum level, All TR Subjects (59)” value ([3]; clozapine-treated treatment resistant schizophrenics, drawn 12 hours after last clozapine dose) of the same compound?
Answer: Its value is 260 ± 203 ng/mL.

Question: What about the “pKi α2A, competitive antagonist” value [4] of the same compound?
Answer: Its value is “nr and nr^”.

Question: And the inhibition at 10 µM (5HT3 receptors)?
Answer: Its inhibition at 10 µM is at least 90%.
